From US11517016B2, “Agrochemical combinations” (UPL LTD, priority 2017, dated 2022)

Experiments:
fruit borer = experiment: Trials of Chlorantraniliprole and Orthosilicic acid on controlling fruit borer; type: in vivo; settings: for Percent fruit Borer control Mean: Mean of A-10, B-10, C-10
Procedure: Trials were conducted to test the efficacy of the combination of Chlorantraniliprole and Orthosilicic acid on controlling fruit borer at different dosages.

Early Blight = experiment: Trials of Chlorantraniliprole+Mancozeb+Orthosilicic acid on Early Blight control; type: in vivo
Procedure: Trials were conducted to test the efficacy of the combination of Chlorantraniliprole+Mancozeb+Orthosilicic acid on Early Blight control: […]

Molecule: CNC(=O)c1cc(Cl)cc(C)c1NC(=O)c1cc(Br)nn1-c1ncccc1Cl [Chlorantraniliprole]
- Percent fruit Borer control A-10 (fruit borer; dose 150 gm-ml/ha): 73.8%
- Percent fruit Borer control B-10 (fruit borer; dose 150 gm-ml/ha): 85.4%
- Percent fruit Borer control C-10 (fruit borer; dose 150 gm-ml/ha): 87.8%
- Percent fruit Borer control Mean (fruit borer; dose 150 gm-ml/ha): 82.33%
- Per Cent Early Blight Control (PDC) A-10 (Early Blight; T-5, dose 150 gm-ml/ha): 04.52%
- Per Cent Early Blight Control (PDC) B-10 (Early Blight; T-5, dose 150 gm-ml/ha): 02.39%
- Per Cent Early Blight Control (PDC) C-10 (Early Blight; T-5, dose 150 gm-ml/ha): 02.76%
- Per Cent Early Blight Control (PDC) Mean (Early Blight; T-5, dose 150 gm-ml/ha): 3.22%

Molecule: Mancozeb
- Per Cent Early Blight Control (PDC) A-10 (Early Blight; T-6, dose 2000 gm-ml/ha): 72.26%
- Per Cent Early Blight Control (PDC) B-10 (Early Blight; T-6, dose 2000 gm-ml/ha): 77.04%
- Per Cent Early Blight Control (PDC) C-10 (Early Blight; T-6, dose 2000 gm-ml/ha): 81.17%
- Per Cent Early Blight Control (PDC) Mean (Early Blight; T-6, dose 2000 gm-ml/ha): 76.82%

Molecule: Orthosilicic acid [OSA]
- Percent fruit Borer control A-10 (fruit borer; dose 750 gm-ml/ha): 2.1%
- Percent fruit Borer control B-10 (fruit borer; dose 750 gm-ml/ha): 3.6%
- Percent fruit Borer control C-10 (fruit borer; dose 750 gm-ml/ha): 4.4%
- Percent fruit Borer control Mean (fruit borer; dose 750 gm-ml/ha): 3.37%
- Per Cent Early Blight Control (PDC) A-10 (Early Blight; T-7, dose 750 gm-ml/ha): 9.38%
- Per Cent Early Blight Control (PDC) B-10 (Early Blight; T-7, dose 750 gm-ml/ha): 11.57%
- Per Cent Early Blight Control (PDC) C-10 (Early Blight; T-7, dose 750 gm-ml/ha): 13.95%
- Per Cent Early Blight Control (PDC) Mean (Early Blight; T-7, dose 750 gm-ml/ha): 11.63%
- Effect of addition on effectiveness of the combination of chlorantraniliprole+Mancozeb against Early blight (Early Blight; added to Chlorantraniliprole+Mancozeb): act as synergist
